Results published in BindingDB's records for doi:10.1111/j.1747-0285.2009.00833.x (Bayer Healthcare, 2009).

These compounds were tested against Heat shock protein HSP 90-alpha (Homo sapiens, UniProt P07900) (assay: Competition Assay). Conditions: pH 7.4.
Excerpt: To assess the affinity of compounds binding to Hsp90, we measured their ability to compete with the binding of a fluorescent analog of GA (GM-Bodipy) to Hsp90 using fluoresence polarization.

| SMILES | IC50 [nM] |
| --- | --- |
| Oc1ccc(-c2nnc(S)n2-c2cccc3ccccc23)c(O)c1 [Resorcinol analog, 1] | 0.3 |
| CCc1cc(-c2nnc(S)n2-c2cccc3ccccc23)c(O)cc1O [Ethyl analog, 4] | 0.2 |
| Oc1ccc(-c2nnc(S)n2-c2ccccc2)c(O)c1 [Unsubstituted phenyl ring analog, 2] | 0.5 |
| CCOC(=O)NCc1ccc(-n2c(-c3ccc(O)cc3O)n[nH]c2=S)cc1 [Ethyl carbamate analog, 3] | 0.1 |

The remaining lines, values ahead:

| IC50 [nM] | SMILES |
| --- | --- |
| 0.1 | CC(C)c1cc(-c2n[nH]c(=S)n2-c2cccc3ccccc23)c(O)cc1O [lspropyl analog, 5] |
| 0.04 | CCOC(=O)NCc1ccc(-n2c(-c3cc(C(C)C)c(O)cc3O)n[nH]c2=S)cc1 [BX-2819] |
